In paper PMC9841532, “Exploring the Effect of Halogenation in a Series of Potent and Selective A2B Adenosine Receptor Antagonists” (Journal of Medicinal Chemistry, 2022):
Values after ≈ are worked out from the molar mass of the structure shown. Read-outs that look alike come from different tables or passages of the source.

Tests used:
[1] = target: T1, hA2BAR (Homo sapiens, UniProt P29275); assay: Radioligand binding competition, [3H]DPCPX, membranes from HEK-293-A2B cells; parameters: Exp. dG: unit not given here; conditions: for Exp. dG: experimental binding free energy, Supplementary Table S3, unit not given (errors in kcal/mol); for Ki: read-out: Ki hA2B
T1 construct: host or cells: HEK-293 (HEK-293-A2B) cell membranes
T1 sequence (P29275 1-332): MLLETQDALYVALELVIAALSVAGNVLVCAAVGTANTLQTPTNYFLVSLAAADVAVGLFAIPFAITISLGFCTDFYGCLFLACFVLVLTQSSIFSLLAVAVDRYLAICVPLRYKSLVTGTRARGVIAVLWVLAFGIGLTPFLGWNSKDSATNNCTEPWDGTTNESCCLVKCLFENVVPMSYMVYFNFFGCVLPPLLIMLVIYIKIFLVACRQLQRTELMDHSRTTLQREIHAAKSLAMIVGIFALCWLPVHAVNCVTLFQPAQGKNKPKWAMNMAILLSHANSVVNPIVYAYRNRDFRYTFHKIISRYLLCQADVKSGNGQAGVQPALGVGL
Summary of the method: (§1)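 Racemates, plus selected enantiomers after chiral resolution, were tested at 25 °C, with a 60 min incubation for one subtype and 30 min for others. Non-specific binding was defined with 10 μM or 100 μM R-PIA. Bound radioactivity was counted after washing and filtration.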

[2] = target: T2, hA1AR (Homo sapiens, UniProt P30542); conditions: prototype series, [3H]DPCPX, human CHO cells ref 30, 31; cited from earlier work
T2 sequence (P30542 1-326): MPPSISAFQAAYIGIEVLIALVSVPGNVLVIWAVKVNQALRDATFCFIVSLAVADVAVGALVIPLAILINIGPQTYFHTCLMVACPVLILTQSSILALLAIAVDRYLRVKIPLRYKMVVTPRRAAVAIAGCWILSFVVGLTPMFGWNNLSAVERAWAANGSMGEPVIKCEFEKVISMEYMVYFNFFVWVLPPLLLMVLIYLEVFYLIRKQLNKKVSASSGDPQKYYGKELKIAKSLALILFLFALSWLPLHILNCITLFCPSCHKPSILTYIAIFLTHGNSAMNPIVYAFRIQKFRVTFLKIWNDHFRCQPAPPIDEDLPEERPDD

[3] = target: T3, hA2AAR (Homo sapiens, UniProt P29274); conditions: prototype series, human HeLa cells ref 30, 31; cited from earlier work
T3 construct: expressed in transfected cells; host or cells: HeLa (HeLa-A2A) cell membranes

[4] = target: T4, hA3AR (Homo sapiens, UniProt P0DMS8); conditions: prototype series, [3H]NECA, human HeLa cells ref 30, 31; cited from earlier work
T4 construct: expressed in transfected cells; host or cells: HeLa (HeLa-A3) cell membranes
T4 sequence (P0DMS8 1-318): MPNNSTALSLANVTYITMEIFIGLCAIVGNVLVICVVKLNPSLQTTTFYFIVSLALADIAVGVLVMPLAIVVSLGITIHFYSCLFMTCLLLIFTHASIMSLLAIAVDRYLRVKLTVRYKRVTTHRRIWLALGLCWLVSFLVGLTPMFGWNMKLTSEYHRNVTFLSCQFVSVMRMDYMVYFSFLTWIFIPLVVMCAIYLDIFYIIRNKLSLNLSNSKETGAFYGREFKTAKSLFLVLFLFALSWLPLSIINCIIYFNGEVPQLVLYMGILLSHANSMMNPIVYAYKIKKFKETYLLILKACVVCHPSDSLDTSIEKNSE

[5] = target: A2B; conditions: Figure 1, representative A2B antagonists ref 28-32; read-out: Ki; cited from earlier work
[6] = target: T2, hA1AR; assay: Radioligand binding competition, [3H]DPCPX, membranes from CHO-A1 cells; conditions: for % at 1 μM hA1 (percentage displacement of specific binding): [3H]DPCPX, human CHO cells, n = 2
Summary of the method: as §1

[7] = target: T3, hA2AAR; assay: Radioligand binding competition, [3H]ZM241385, membranes from HeLa-A2A cells; conditions: 1 μM, [3H]ZM241385, human HeLa cells, n = 2
Summary of the method: as §1

[8] = target: T4, hA3AR; assay: Radioligand binding competition, [3H]NECA, membranes from HeLa-A3 cells; conditions: 1 μM, [3H]NECA, human HeLa cells, n = 2
Summary of the method: as §1

[9] = Solubility determination (nephelometry); type: physicochemical; conditions: 1:99 DMSO/PSB buffer, PBS pH 7, 37 °C
Method: The solubility of selected compounds was evaluated by following a previously described method.[31] A 10 mM stock solution of the compound was serially diluted in 100% DMSO, and 2.5 μL of this solution was added to a 384-well UV-transparent plate (Greiner) containing 47.5 μL of PBS (pH = 7). The plate was incubated at 37 °C for 4 h, and the light scattering was measured in a NEPHELOstar Plus reader (BMG LABTECH). The data was fitted to a segmented linear regression for measuring the compound solubility.

[10] = Human microsomal stability; type: in vitro ADME; conditions: human microsomes; for microsomal stability percent (percentage remanent): sampling time 60 min; for microsomal CLint at 1 h / half-life at 1 h: human, pH 7.4; for microsomal CLint at 1 h: read-out: microsomal stability Clint (intrinsic clearance); for half-life at 1 h: read-out: microsomal stability t1/2
Method: The human microsomal stability of selected compounds was evaluated by following a previously described method.[31] The human microsomes employed were purchased from Tebu-Xenotech. The compound was incubated with the microsomes at 37 °C in a 50 mM phosphate buffer (pH = 7.4) containing 3 mM MgCl2, 1 mM NADP, 10 mM glucose-6-phosphate, and 1 U/mL glucose-6-phosphate-dehydrogenase. Samples (75 μL) were taken from each well at 0, 10, 20, 40, and 60 min and transferred to a plate containing 4 °C 75 μL acetonitrile and 30 μL of 0.5% formic acid in water was added for improving the chromatographic conditions. The plate was centrifuged (46,000 g, 30 min), and supernatants were taken and analyzed in a UPLC-MS/MS (Xevo TQD, Waters) by employing a BEH C18 column and an isocratic gradient of 0.1% formic acid in water:0.1% formic acid acetonitrile (60:40). The metabolic stability of the compounds was calculated from the logarithm of the remaining compounds at each of the time point studied.

[11] = target: T5, CYP3A4 (Homo sapiens, UniProt P08684); assay: CYP3A4 inhibition (fluorescence, substrates DBF or 7-BFC); type: biochemical; conditions: for IC50: IC50 obtained by extrapolation with analysis software
T5 construct: host or cells: insect cell microsomes
Method: To identify potential metabolic liabilities within the series here documented, the selected A2BAR antagonists were tested in vitro for CYP3A4 inhibitory activity.
The inhibitory activity of selected compounds was evaluated by following a previously described method.[31] […] The plate was then pre-incubated at 37 °C for 5 min and the reaction initiated by the addition of a pre-warmed enzyme/substrate (E/S) mix. The E/S mix contained buffer (KH2PO4), c-DNA-expressed P450 in insect cell microsomes, substrate (DBF: dibenzylfluorescein or 7-BFC: 7-benzyloxy-4-trifluoromethyl-coumarin) and other components to give the final assay concentrations in a reaction volume of 200 μL. Reactions were terminated after various times (a specific time for each cytochrome) by addition of STOP solution (ACN/Tris–HCl 0.5 M 80:20, and NaOH 2 N for CYP3A4). Fluorescence per well was measured using a fluorescence plate reader (Tecan Infinite M1000 PRO), and percentage of inhibition was calculated. In silico predictions were performed using free web-based models (FAME 3, SmartCYP, and Xenosite).[62]−[64]

[12] = displacement of specific [3H]DPCPX binding in human HEK-293 cells, n = 3
[13] = substrate 7-benzyloxy-4-trifluoromethyl-coumarin
[14] = substrate dibenzylfluorescein, read-out: CYP3A4 IC50, DBF

T5 sequence (P08684 whole entry): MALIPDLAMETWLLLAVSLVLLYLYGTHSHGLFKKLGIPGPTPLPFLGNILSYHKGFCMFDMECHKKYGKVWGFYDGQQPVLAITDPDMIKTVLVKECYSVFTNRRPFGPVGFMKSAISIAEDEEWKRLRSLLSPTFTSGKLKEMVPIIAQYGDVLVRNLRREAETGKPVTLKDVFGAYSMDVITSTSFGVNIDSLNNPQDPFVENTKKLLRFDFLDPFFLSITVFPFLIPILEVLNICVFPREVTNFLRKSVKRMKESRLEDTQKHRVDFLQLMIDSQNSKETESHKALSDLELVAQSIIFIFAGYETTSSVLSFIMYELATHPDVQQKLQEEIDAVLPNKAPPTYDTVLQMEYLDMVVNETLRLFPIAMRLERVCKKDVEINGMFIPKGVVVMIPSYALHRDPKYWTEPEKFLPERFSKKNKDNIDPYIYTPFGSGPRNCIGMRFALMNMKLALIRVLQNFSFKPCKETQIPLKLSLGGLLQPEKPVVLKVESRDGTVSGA
T3 sequence (P29274 whole entry): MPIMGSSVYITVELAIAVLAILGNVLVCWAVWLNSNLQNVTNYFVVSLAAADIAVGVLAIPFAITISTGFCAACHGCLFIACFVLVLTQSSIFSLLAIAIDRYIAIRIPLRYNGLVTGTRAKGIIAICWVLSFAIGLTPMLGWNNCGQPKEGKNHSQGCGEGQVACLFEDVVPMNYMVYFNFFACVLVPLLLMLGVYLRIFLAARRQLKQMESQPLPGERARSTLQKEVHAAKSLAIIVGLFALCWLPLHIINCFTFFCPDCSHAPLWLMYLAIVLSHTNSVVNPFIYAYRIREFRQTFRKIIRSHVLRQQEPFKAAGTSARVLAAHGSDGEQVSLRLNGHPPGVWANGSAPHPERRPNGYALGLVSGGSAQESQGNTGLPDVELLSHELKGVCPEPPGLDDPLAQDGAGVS

Row | Structure (SMILES) | Exp. dG [1] | Ki [1, 12] [nM] | % at 1 μM hA1 (percentage displacement of specific binding) [2] [%] | % at 1 μM hA2A (percentage displacement of specific binding) [3] [%] | % at 1 μM hA3 (percentage displacement of specific binding) [4] [%] | other results
1 | CC1=C(C(=O)OC(C)C)C(c2ccco2)n2c(nc3ccccc32)N1 (stereo not drawn) [II, reference compound] | -11.53 | 3.49 ± 0.2 | 20 | 28 | 2 | % at 1 μM hA1 (percentage displacement of specific binding) ([6]; listed as (±)-ISAM-140): 20%; % at 1 μM hA1 (percentage displacement of specific binding) ([6]; listed as ISAM-140): 14%; % at 1 μM hA2A (percentage displacement of specific binding) ([7]; listed as (±)-ISAM-140): 28%; % at 1 μM hA2A (percentage displacement of specific binding) ([7]; listed as ISAM-140): 7%; % at 1 μM hA2B (percentage displacement of specific binding) ([1]; 1 μM, [3H]DPCPX, human HEK-293 cells, n = 2): 17%; % at 1 μM hA3 (percentage displacement of specific binding) ([8]; listed as (±)-ISAM-140): 2%; % at 1 μM hA3 (percentage displacement of specific binding) ([8]; listed as ISAM-140): 3%; Ki [5]: 3.49 nM
2 | CCOC(=O)C1=C(C)Nc2nc3ccccc3n2C1c1cccs1 (stereo not drawn) [V] |  |  | 8 | 16 | 1 | 
3 | CC1=C(C(=O)OC(C)C)C(c2cocn2)n2c(nc3cc(F)ccc32)N1 (stereo not drawn) [18b] | -11.2 | 6.1 ± 0.3 |  |  |  | % at 1 μM hA1 (percentage displacement of specific binding) [6]: 29%; % at 1 μM hA2A (percentage displacement of specific binding) [7]: 20%; Ki [1]: < 10 nM; % at 1 μM hA3 (percentage displacement of specific binding) [8]: 20%; solubility at 4 h [9]: 64.6 µM (≈ 23 µg/mL); microsomal stability percent (percentage remanent) [10]: 35.15%; microsomal CLint at 1 h [10]: 12.8 µL/min/mg; half-life at 1 h [10]: 40.8 min; CYP3A4 % inh. at 10 μM, 7-BFC [11, 13]: 52%; CYP3A4 % inh. at 10 μM, DBF ([11]; substrate dibenzylfluorescein): 31%; IC50 [11, 14]: > 10000 nM
4 | CC1=C(C(=O)OC(C)C)C(c2ccco2)n2c(nc3ccc(Cl)cc32)N1 (stereo not drawn) [15j] | -10.03 | 44.3 ± 1.4 |  |  |  | Ki ([6]; displacement of specific [3H]DPCPX binding in human CHO cells, n = 3, read-out: Ki hA1): 667 ± 12 nM; % at 1 μM hA2A (percentage displacement of specific binding) [7]: 17%; % at 1 μM hA3 (percentage displacement of specific binding) [8]: 5%; solubility at 4 h [9]: 58.2 µM (≈ 21.6 µg/mL); microsomal stability percent (percentage remanent) [10]: 16.83%; microsomal CLint at 1 h [10]: 26.4 µL/min/mg; half-life at 1 h [10]: 21.1 min; CYP3A4 % inh. at 10 μM, 7-BFC [11, 13]: 11%; CYP3A4 % inh. at 10 μM, DBF ([11]; substrate dibenzylfluorescein): 47%; IC50 ([11]; substrate 7-benzyloxy-4-trifluoromethyl-coumarin, read-out: CYP3A4 IC50, 7-BFC): > 10000 nM; IC50 [11, 14]: > 10000 nM

The next lines start with results.

Row | Exp. dG [1] | Ki [1, 12] [nM] | Structure (SMILES) | % at 1 μM hA1 (percentage displacement of specific binding) [2] [%] | % at 1 μM hA2A (percentage displacement of specific binding) [3] [%] | % at 1 μM hA3 (percentage displacement of specific binding) [4] [%] | other results
5 | -10.27 |  | CC1=C(C(=O)OC(C)C)C(c2ccsc2)n2c(nc3ccccc32)N1 (stereo not drawn) [VIII] | 11 | 3 | 21 | 
6 | -10.8 |  | CCOC(=O)C1=C(C)Nc2nc3ccccc3n2C1c1ccco1 (stereo not drawn) [I] | 5 | 14 | 1 | Ki [5]: 12 nM
7 | -8.767 |  | CC1=C(C(=O)OC(C)C)C(c2cccs2)n2c(nc3ccccc32)N1 (stereo not drawn) [VI] | 1 | 17 | 3 | 
8 | -10.26 |  | CCOC(=O)C1=C(C)Nc2nc3ccccc3n2C1c1ccsc1 (stereo not drawn) [VII] | 3 | 10 | 2 | 
9 | -10.48 |  | CCOC(=O)C1=C(C)Nc2nc3ccccc3n2C1c1ccoc1 (stereo not drawn) [III] | 7 | 11 | 1 | 
